# Reference: PubChem BioAssay (NCI)
#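 Step 1: Grow cells in 96-well plates. Step 2: Expose to compound for 48 hours at 5 concentrations. Step 3: Interpolate endpoints linearly; if unreached, use highest concentration. GI50 = concentration required for 50% inhibition of growth. TGI marks complete inhibition of growth.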
# What was measured:
# Experiment in all cases: growth of human tumour cells (NCI), 48 h
# UACC-62 melanoma = tested on: UACC-62 melanoma
# EKVX NSCLC = tested on: EKVX NSCLC
# LOX IMVI melanoma = tested on: LOX IMVI melanoma
# HCT-15 colon = tested on: HCT-15 colon
# MALME-3M melanoma = tested on: MALME-3M melanoma
# SK-OV-3 ovarian = tested on: SK-OV-3 ovarian
# MOLT-4 leukemia = tested on: MOLT-4 leukemia
# TK-10 renal = tested on: TK-10 renal
# HL-60(TB) leukemia = tested on: HL-60(TB) leukemia
# RXF 393 renal = tested on: RXF 393 renal
Compound,GI50 (UACC-62 melanoma),TGI (UACC-62 melanoma),GI50 (EKVX NSCLC),TGI (EKVX NSCLC),GI50 (LOX IMVI melanoma),TGI (LOX IMVI melanoma),GI50 (HCT-15 colon),TGI (HCT-15 colon),GI50 (MALME-3M melanoma),TGI (MALME-3M melanoma),GI50 (SK-OV-3 ovarian),TGI (SK-OV-3 ovarian),GI50 (MOLT-4 leukemia),TGI (MOLT-4 leukemia),GI50 (TK-10 renal),TGI (TK-10 renal),GI50 (HL-60(TB) leukemia),TGI (HL-60(TB) leukemia),GI50 (RXF 393 renal),TGI (RXF 393 renal)
O=Nc1c2cccnc2n2nnc3ccc(Cl)cc3c12,3.99 µM,11.2 µM,3.59 µM,19.6 µM,1.35 µM,6.19 µM,0.94 µM,5.75 µM,1.57 µM,4.95 µM,5.37 µM,20.4 µM,0.0476 µM,1.49 µM,1.66 µM,7.6 µM,0.272 µM,50 µM,0.65 µM,1.64 µM
CCCc1ccc(N=Cc2cc(OC)c(OC)c(OC)c2)cc1,,> 100 µM,,> 100 µM,,> 100 µM,,> 54.6 µM,,> 100 µM,,> 100 µM,,> 100 µM,,> 100 µM,,> 67.5 µM,,> 100 µM
O=C1NC(=O)C(c2ccccc2Cl)=C1Nc1cccc(O)c1,2.25 µM,> 25 µM,> 22.5 µM,> 25 µM,15.1 µM,> 25 µM,2.47 µM,> 25 µM,> 25 µM,> 25 µM,4.99 µM,> 25 µM,> 25 µM,> 25 µM,10.7 µM,> 25 µM,4.93 µM,> 25 µM,1.92 µM,> 21.1 µM
CC(SC1=CC(=O)c2c(O)ccc(O)c2C1=O)C(=O)O (stereo not drawn),,36.6 µM,,> 100 µM,,> 57.7 µM,,> 55.3 µM,,> 64.6 µM,,> 100 µM,,60.7 µM,,> 82.2 µM,,> 41.9 µM,,> 64.4 µM
CCOC(=O)c1c2ccc(/C=C/C(=O)OC)ccc-2c(C(=O)OCC)c1N,,> 100 µM,,> 100 µM,,> 100 µM,,> 100 µM,,> 100 µM,,> 100 µM,,> 100 µM,,> 100 µM,,> 100 µM,,> 100 µM
Cc1ccc(S(=O)(=O)NCCN2c3nc4ccccc4cc3Sc3cc4ccccc4nc32)cc1,11.4 µM,51.4 µM,> 77 µM,> 100 µM,> 81.7 µM,> 100 µM,> 100 µM,> 100 µM,23.2 µM,> 100 µM,7.82 µM,54.2 µM,> 100 µM,> 100 µM,28.6 µM,> 100 µM,> 100 µM,> 100 µM,22.1 µM,66.3 µM
CC1=C(N2CC2)C(=O)c2nc3n(c2C1=O)CCC3O (stereo not drawn),,0.482 µM,,1.13 µM,,1.92 µM,,29.6 µM,,0.33 µM,,0.859 µM,,21.1 µM,,0.285 µM,,8.47 µM,,0.398 µM
NC(N)=NNC(=O)C(=O)O,,> 100 µM,,> 100 µM,,> 100 µM,,> 100 µM,,> 100 µM,,> 100 µM,,> 100 µM,,> 100 µM,,> 100 µM,,> 100 µM
COc1ccc2c(C3(O)CCNCC3)c[nH]c2c1,,> 100 µM,,> 100 µM,,> 100 µM,,> 100 µM,,> 100 µM,,> 100 µM,,> 100 µM,,> 100 µM,,> 100 µM,,> 100 µM
Cn1c2ccccc2n2c3nc4ccccc4nc3c(C#N)c12,,> 100 µM,,> 100 µM,,> 100 µM,,> 100 µM,,> 100 µM,,> 100 µM,,> 100 µM,,> 100 µM,,> 100 µM,,> 100 µM
O=C(O)C(Cc1ccc(O)c([N+](=O)[O-])c1)N1C(=O)c2ccccc2C1=O (stereo not drawn),,> 100 µM,,> 100 µM,,> 100 µM,,> 100 µM,,> 100 µM,,> 100 µM,,> 100 µM,,> 100 µM,,47 µM,,> 100 µM
CCCCCCCCCCCC(=O)C1=C(O)C(O)CCC1=O (stereo not drawn),,25.5 µM,,34.1 µM,,28.2 µM,,27.3 µM,,32 µM,,67.2 µM,,60.3 µM,,49 µM,,38.8 µM,,> 100 µM
CCN(CC)CC(C)Nc1ccc(C)c2sc3ccccc3c(=O)c12 (stereo not drawn),1.82 µM,3.98 µM,7.86 µM,24.2 µM,1.52 µM,3.99 µM,3.39 µM,14.7 µM,2.45 µM,8.29 µM,2.85 µM,12.3 µM,1.68 µM,5.93 µM,4.83 µM,17.6 µM,1.62 µM,5.24 µM,,1.97 µM
Cn1c(=O)c2c(nc3n2CCC(=O)N3)n(C)c1=O,,> 100 µM,,> 100 µM,,> 100 µM,,,,> 100 µM,,> 100 µM,,> 100 µM,,> 100 µM,,> 100 µM,,> 100 µM
